Parasitaemia data for five compounds are collected here from ChEMBL document CHEMBL1132737, “Oxygenated chalcones and bischalcones as potential antimalarial agents” (2000).

What all share (type): functional
Test [1] relates to Plasmodium berghei. Description: In vivo activity at day 9 against chloroquine-sensitive Plasmodium berghei infected mice (Mus musculus) at 100 mg/kg intraperitoneal dose over 4 days.
For test [2], the system named is Plasmodium berghei. Description: In vivo activity at day 5 against chloroquine-sensitive Plasmodium berghei infected mice (Mus musculus) at 100 mg/kg intraperitoneal dose over 4 days.
The subject of test [3] is Plasmodium berghei. Description: In vivo activity at day 7 against chloroquine-sensitive Plasmodium berghei infected mice (Mus musculus) at 100 mg/kg intraperitoneal dose over 4 days.
For test [4], the system named is Plasmodium berghei. Description: Parasitemia at day 13 after combination dose at 50 mg/kg/day with 15 mg/kg/day […] over 4 days.
In test [5] the test system is Plasmodium berghei. Nature of the test: In vivo activity after 11 days against chloroquine-sensitive Plasmodium berghei infected mice (Mus musculus) at 100 mg/kg intraperitoneal dose over 4 days.
The test system of test [6] is Plasmodium berghei. Nature of the test: Parasitaemia at day 13 after 50 mg/kg/day dose over 4 days.
Test [7] concerns Plasmodium berghei. Description: Parasitaemia at day 9 after combination dose at 50 mg/kg/day with 15 mg/kg/day […] over 4 days.
The subject of test [8] is Plasmodium berghei. Nature of the test: Parasitaemia at day 5 after 50 mg/kg/day dose over 4 days.
Test [9] deals with Plasmodium berghei. Description: Parasitaemia at day 7 after combination dose at 50 mg/kg/day with 15 mg/kg/day […] over 4 days.
Test [10] has as its system Plasmodium berghei. Nature of the test: Parasitaemia at day 11 after 50 mg/kg/day dose over 4 days.
The test system of test [11] is Plasmodium berghei. Description: Parasitemia at day 9 after 50 mg/kg/day dose over 4 days.
Test [12] relates to Plasmodium berghei. Description: Parasitemia at day 7 after 50 mg/kg/day dose over 4 days.
Test [13] deals with Plasmodium berghei. Nature of the test: In vivo activity after 15 days against chloroquine-sensitive Plasmodium berghei infected mice (Mus musculus) at 100 mg/kg intraperitoneal dose over 4 days.
Test [14] deals with Plasmodium berghei. Description: Parasitaemia at day 17 after combination dose at 50 mg/kg/day with 15 mg/kg/day […] over 4 days.
The test system of test [15] is Plasmodium berghei. Nature of the test: In vivo activity after 13 days against chloroquine-sensitive Plasmodium berghei infected mice (Mus musculus) at 100 mg/kg intraperitoneal dose over 4 days.
Test [16] concerns Plasmodium berghei. Description: Parasitaemia at day 15 after combination dose at 50 mg/kg/day with 15 mg/kg/day […] over 4 days.
The subject of test [17] is Plasmodium berghei. Description: Parasitaemia at day 11 after combination dose at 50 mg/kg/day with 15 mg/kg/day […] over 4 days.
Test [18] concerns Plasmodium berghei. Description: Parasitemia at day 5 after combination dose at 50 mg/kg/day with 15 mg/kg/day […] over 4 days.
For test [19], the system named is Plasmodium berghei. Description: Parasitemia at day 15 after 50 mg/kg/day dose over 4 days.

For the compound `COc1ccc(/C=C/C(=O)c2ccc(OCOc3ccc(C(=O)/C=C/c4ccc(OC)cc4OC)cc3)cc2)c(OC)c1`, the results for the Parasitaemia with Plasmodium berghei [1], with Plasmodium berghei [2] and in the test on Plasmodium berghei [3] were 2%, 3.4% and 5%, respectively.
Consider `COc1ccc(/C=C/C(=O)c2ccc(OCCCOc3ccc(C(=O)/C=C/c4ccc(OC)c(OC)c4)cc3)cc2)cc1OC`, for which the Parasitaemia with Plasmodium berghei [4] came out at 12.2%; in the test with Plasmodium berghei [1], 0.6%; in the test with Plasmodium berghei [5] it was 0.9%; in the test with Plasmodium berghei [6] it was 10.4%; with Plasmodium berghei [7] it was 1.9%; in the test on Plasmodium berghei [8] it was 0.74%. For the same compound, the Parasitaemia worked out at 1.3% in the test on Plasmodium berghei [9]; 5% in the test with Plasmodium berghei [10]; 2% in the test on Plasmodium berghei [11]; 2.4% in the test with Plasmodium berghei [12]; 3% with Plasmodium berghei [13]; 24% in the test with Plasmodium berghei [14]. Besides, the Parasitaemia with Plasmodium berghei [2] was determined as 0.01%; with Plasmodium berghei [3], 0.05%; with Plasmodium berghei [15] it was 1.5%; in the test with Plasmodium berghei [16], 18%; in the test on Plasmodium berghei [17], 7.6%; with Plasmodium berghei [18], 0%.
Consider `CC(=O)c1ccc(OCCCCCCOc2ccc(C(=O)/C=C/c3ccc4c(c3)OCO4)cc2)cc1`, for which the Parasitaemia with Plasmodium berghei [4] came out at 5.5%; in the test on Plasmodium berghei [1], 4%; in the test with Plasmodium berghei [19], 10%; in the test on Plasmodium berghei [5], 6.3%; in the test on Plasmodium berghei [6], 9%; in the test on Plasmodium berghei [7], 3.2%. In addition, the Parasitaemia in the test on Plasmodium berghei [8] is 2.2%; in the test with Plasmodium berghei [9], 2%; in the test with Plasmodium berghei [10] it was 6.5%; in the test on Plasmodium berghei [11], 4.8%; in the test with Plasmodium berghei [12], 3.2%; in the test on Plasmodium berghei [2], 1%. Also, the Parasitaemia stood at 2.1% in the test with Plasmodium berghei [3], 8% in the test with Plasmodium berghei [16], 3.2% in the test on Plasmodium berghei [17] and 0.02% in the test with Plasmodium berghei [18].
`COc1cccc(/C=C/C(=O)c2ccc(OCCCCCCOc3ccc(C(=O)/C=C/c4cccc(OC)c4)cc3)cc2)c1`: the Parasitaemia in the test on Plasmodium berghei [4] is reported as 3.6%; in the test with Plasmodium berghei [1], 6.8%; in the test on Plasmodium berghei [5], 11%; in the test on Plasmodium berghei [6], 13%; in the test on Plasmodium berghei [7] it was 0.14%; in the test on Plasmodium berghei [8] it was 1.8%. The Parasitaemia in the test with Plasmodium berghei [9] turned out to be 0%; in the test with Plasmodium berghei [10], 9.5%; with Plasmodium berghei [11] it was 7.9%; in the test with Plasmodium berghei [12] it was 3.2%; with Plasmodium berghei [14] it was 11.5%; in the test with Plasmodium berghei [2] it was 2.1%. Also, the Parasitaemia was 3.4% with Plasmodium berghei [3], 6.6% in the test on Plasmodium berghei [16], 2% in the test on Plasmodium berghei [17] and 0% in the test on Plasmodium berghei [18].
Turning to `COc1cccc(/C=C/C(=O)c2ccc(OCCCCOc3ccc(C(=O)/C=C/c4cccc(OC)c4)cc3)cc2)c1`, the Parasitaemia turned out to be 7.5% in the test with Plasmodium berghei [4]; 3.9% with Plasmodium berghei [1]; 13.3% in the test with Plasmodium berghei [19]; 6.4% with Plasmodium berghei [5]; 10.8% in the test on Plasmodium berghei [6]; 2.9% in the test on Plasmodium berghei [7]. Moreover, the Parasitaemia in the test on Plasmodium berghei [8] is 1.9%; with Plasmodium berghei [9] it was 3.2%; in the test with Plasmodium berghei [10], 6.6%; in the test with Plasmodium berghei [11] it was 5.7%; in the test with Plasmodium berghei [12] it was 2.1%; with Plasmodium berghei [14], 16%. In addition, the Parasitaemia in the test with Plasmodium berghei [2] is reported as 1.5%; in the test with Plasmodium berghei [3], 2%; in the test on Plasmodium berghei [15], 19%; with Plasmodium berghei [16] it was 10%; in the test with Plasmodium berghei [17], 5%; in the test with Plasmodium berghei [18], 0.8%.
